Experimental data as given in PubChem BioAssay (NCI).
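Each compound was tested at five concentrations against cells in 96-well plates for 48 hours. At the TGI there is no net growth.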

What was measured:
Assay in all cases: NCI tumour cell line growth inhibition, 48 h
A549 NSCLC = system: A549 NSCLC
BT-549 breast = system: BT-549 breast
HCC-2998 colon = system: HCC-2998 colon
HCT-116 colon = system: HCT-116 colon
HOP-92 NSCLC = system: HOP-92 NSCLC
MCF7 breast = system: MCF7 breast
OVCAR-4 ovarian = system: OVCAR-4 ovarian
OVCAR-5 ovarian = system: OVCAR-5 ovarian
PC-3 prostate = system: PC-3 prostate
RXF 393 renal = system: RXF 393 renal
SK-MEL-28 melanoma = system: SK-MEL-28 melanoma
SN12C renal = system: SN12C renal
SR leukemia = system: SR leukemia
T-47D breast = system: T-47D breast
U251 CNS = system: U251 CNS

SMILES | TGI (A549 NSCLC) | TGI (BT-549 breast) | TGI (HCC-2998 colon) | TGI (HCT-116 colon) | TGI (HOP-92 NSCLC) | TGI (MCF7 breast) | TGI (OVCAR-4 ovarian) | TGI (OVCAR-5 ovarian) | TGI (PC-3 prostate) | TGI (RXF 393 renal) | TGI (SK-MEL-28 melanoma) | TGI (SN12C renal) | TGI (SR leukemia) | TGI (T-47D breast) | TGI (U251 CNS)
CC(NNC(=O)c1ccncc1)c1ccc(Cl)cc1Cl (stereo not given) | > 100 µM | > 100 µM | > 100 µM | > 100 µM | > 100 µM | > 100 µM | > 100 µM | > 100 µM | > 100 µM | > 100 µM | > 100 µM | > 100 µM | > 100 µM | > 100 µM | > 100 µM
C/C(Nc1ccc(Cl)cc1)=C1/CCOC1=O | > 49 µM | > 100 µM | > 100 µM | > 100 µM | > 100 µM | > 100 µM | > 100 µM | > 100 µM | > 100 µM | > 100 µM | > 100 µM | > 100 µM | > 100 µM | > 100 µM | > 100 µM
CCCCCCCCCCCCC1N=C(N)NC2(CCCO2)C1C(=O)OC (stereo not given) | 30.9 µM | 18.5 µM | > 39.5 µM | 7.32 µM | 17.2 µM | 9.2 µM | 26.4 µM | 22.1 µM | 8.57 µM | 6.12 µM | 21.6 µM | 34.2 µM | > 20.9 µM | 27.7 µM | 3.2 µM
C#CCOC(=O)C(=[N+]=[N-])C(=O)CC(C)C | > 10 µM | > 10 µM | > 10 µM | > 10 µM | > 10 µM | > 10 µM | > 10 µM | > 10 µM | > 10 µM | > 10 µM | > 10 µM | > 10 µM | > 10 µM | > 10 µM | > 10 µM
N#CC(NNC(=O)c1ccccc1O)c1c(O)ccc2ccccc12 (stereo not given) | 26.8 µM | > 54.8 µM | > 100 µM | 14.8 µM | 40.7 µM | 53.6 µM | 23.3 µM | 21.1 µM | > 55.1 µM | 29.9 µM | > 100 µM | 37.9 µM | 40.8 µM | 18.7 µM | 37.1 µM
S=c1[nH]n2c(COc3cc(Cl)c(OCc4nnc5sc(=S)[nH]n45)cc3Cl)nnc2s1 | > 100 µM | > 100 µM | > 100 µM | > 100 µM | > 100 µM | 40.8 µM | > 100 µM | > 100 µM | > 100 µM | > 100 µM | > 100 µM | > 100 µM | > 100 µM | > 100 µM | > 100 µM
Cc1cc(C)nc(NS(=O)(=O)c2ccc(Nc3c4ccccc4nc4ccc(C(=O)Nc5ccc(S(=O)(=O)N=C(N)N)cc5)cc34)cc2)n1 | > 100 µM | 95.2 µM | > 100 µM | > 100 µM | > 100 µM | 43.9 µM | > 100 µM | > 100 µM | > 100 µM | > 100 µM | > 100 µM | > 100 µM | > 100 µM | > 100 µM | > 100 µM
COc1cc2c(cc1OC)C(=O)/C(=C/c1ccc(N(C)C)cc1)CC2 | > 10 µM | > 10 µM | > 10 µM | > 10 µM | > 10 µM | > 10 µM | > 10 µM | > 10 µM | > 10 µM | > 10 µM | > 10 µM | > 10 µM | > 10 µM | > 10 µM | > 10 µM
Cc1ccc2nc(C(=O)O)c(=O)[nH]c2c1 | > 100 µM | > 100 µM | > 100 µM | > 100 µM | > 100 µM | > 100 µM | > 100 µM | > 100 µM | > 100 µM | > 100 µM | > 100 µM | > 100 µM | > 100 µM | > 100 µM | > 100 µM
O=C1C2CC[C@@H]3C(=O)C(Cl)(Cl)[C@@H]3CCC2C1(Cl)Cl (stereo not given in full) | > 100 µM | > 100 µM | > 100 µM | > 100 µM | > 100 µM | > 91.1 µM | > 100 µM | > 100 µM | > 100 µM | > 100 µM | > 100 µM | > 100 µM | 70.3 µM | > 100 µM | > 100 µM
CC(CC=O)Nc1nn2c(=O)c3ccccc3nc2s1 (stereo not given) | > 100 µM | > 100 µM | > 100 µM | > 100 µM | > 100 µM | > 100 µM | > 100 µM | > 100 µM | > 100 µM | > 100 µM | > 100 µM | > 100 µM | > 100 µM | > 100 µM | > 100 µM
CCC1CN2CCc3c([nH]c4ccccc34)[C@@](C(=O)OC)(c3cc4c(cc3OC)N(C)C3C(O)(C(=O)OC)C(C(=O)OC)C5(CC)C=CCN6CCC43C65)C[C@@H](C2)[C@@H]1C(C)(C)C (stereo not given in full) | > 10 µM | > 8.68 µM | 1.52 µM | 2.85 µM | 8.19 µM | > 10 µM | > 10 µM | > 10 µM | 3.26 µM | > 10 µM | > 10 µM | 9.93 µM | > 6.41 µM | > 10 µM | > 3.52 µM
C=CCNC1=C2C[C@@H](C)C[C@@H](OC)[C@H](OC(=O)CCN(C)C)[C@H](C)/C=C(\C)[C@@H](OC(N)=O)[C@H](OC)/C=C\C=C(/C)C(=O)NC(=CC1=O)C2=O | 17.4 µM | 26.4 µM | 0.752 µM | 16.5 µM | 29.2 µM | 14.9 µM | 26.7 µM | 25.8 µM | 14.3 µM | 11.7 µM | 21.9 µM | 17.9 µM | > 32.5 µM | 12.8 µM | 21.1 µM
CCOC(=O)c1cc2c3c(cc(OC)c2[nH]1)N(C(=O)OCC)CC3 | > 100 µM | > 100 µM | > 100 µM | > 100 µM | > 100 µM | > 100 µM | > 100 µM | > 100 µM | > 100 µM | > 100 µM | > 100 µM | > 100 µM | > 100 µM | > 100 µM | > 100 µM
CC(C)=CCc1c2c(c(O)c3c(=O)c4c(oc13)-c1ccc(O)cc1OC4C=C(C)C)C=CC(C)(C)O2 (stereo not given) | 24.6 µM | 28.1 µM | 11 µM | 21 µM | 20.8 µM | 28.9 µM | 24.8 µM | 35.9 µM | 24.7 µM | 20.1 µM | 29.2 µM | 17 µM | 16 µM | 23 µM | 25.3 µM
COc1ccc(/C(CC2OC(=O)c3ccccc32)=N\NC(N)=O)cc1 (stereo not given) | > 100 µM | > 100 µM | > 100 µM | > 100 µM | > 100 µM | > 100 µM | > 100 µM | > 100 µM | > 100 µM | > 100 µM | > 100 µM | > 100 µM | > 100 µM | > 100 µM | > 100 µM
COc1ccc(CC[N+]2(C)COc3cc4oc(=O)cc(C)c4cc3C2)cc1OC (stereo not given) | > 100 µM | > 100 µM | > 100 µM | > 100 µM | > 100 µM | > 100 µM | > 100 µM | > 100 µM | > 100 µM | > 100 µM | > 100 µM | > 100 µM | > 100 µM | > 100 µM | > 100 µM
COC(=O)C(=O)C(C(=O)C(=O)Nc1ccc(C)c(C)c1)c1nc2ccc([N+](=O)[O-])cc2[nH]c1=O (stereo not given) | > 100 µM | > 100 µM | > 100 µM | > 100 µM | > 100 µM | > 100 µM | > 100 µM | > 100 µM | > 100 µM | > 100 µM | > 100 µM | > 100 µM | > 100 µM | > 100 µM | > 100 µM
Oc1ccc(SCc2cc(O)ccc2O)cc1 | > 100 µM | 16.5 µM | > 68.9 µM | 26.1 µM | > 47.2 µM | 27.4 µM | 18.5 µM | 49.5 µM | > 52.7 µM | 25.5 µM | 46.7 µM | 28.1 µM | > 100 µM | 30.5 µM | 28.4 µM
